According to paper PMC5824344 (ACS Chemical Biology, 2017):

How the values were obtained:
Type in all cases: biochemical
[1] = target: T1, Rat liver ER α-glucosidase I (Rattus norvegicus, UniProt O88941); test: Inhibition of isolated rat liver ER α-glucosidase I (anthranilic acid-labelled Glc3Man7GlcNAc2 substrate, HPLC); details: for IC50: isolated enzyme in vitro, mean of three measurements
T1 construct: Rat liver ER, I; from tissue; host or cells: liver of male Wistar rats
T1 sequence (O88941 1-834): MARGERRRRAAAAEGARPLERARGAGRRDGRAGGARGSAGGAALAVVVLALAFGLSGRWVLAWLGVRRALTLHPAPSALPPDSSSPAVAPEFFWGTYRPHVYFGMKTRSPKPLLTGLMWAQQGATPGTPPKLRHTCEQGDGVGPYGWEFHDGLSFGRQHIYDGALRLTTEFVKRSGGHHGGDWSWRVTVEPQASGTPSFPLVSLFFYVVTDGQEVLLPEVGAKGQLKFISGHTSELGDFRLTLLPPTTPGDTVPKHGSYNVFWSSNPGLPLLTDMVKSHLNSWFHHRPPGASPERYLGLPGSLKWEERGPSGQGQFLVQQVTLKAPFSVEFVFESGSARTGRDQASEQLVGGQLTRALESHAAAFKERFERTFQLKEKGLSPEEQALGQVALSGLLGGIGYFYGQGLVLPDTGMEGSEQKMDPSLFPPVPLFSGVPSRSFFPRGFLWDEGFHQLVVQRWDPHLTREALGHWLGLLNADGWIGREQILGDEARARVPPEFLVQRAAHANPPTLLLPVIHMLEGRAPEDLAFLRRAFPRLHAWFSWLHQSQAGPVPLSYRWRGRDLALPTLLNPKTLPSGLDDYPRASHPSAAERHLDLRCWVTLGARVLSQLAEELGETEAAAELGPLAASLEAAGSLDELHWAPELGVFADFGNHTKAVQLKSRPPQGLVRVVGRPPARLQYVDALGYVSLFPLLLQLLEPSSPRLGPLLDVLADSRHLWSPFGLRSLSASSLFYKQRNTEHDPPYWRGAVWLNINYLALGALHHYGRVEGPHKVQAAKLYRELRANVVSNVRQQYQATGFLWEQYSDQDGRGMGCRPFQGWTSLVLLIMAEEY
Method: (§1) 4 Enzyme Inhibition Assays
(§2) All rat enzymes were isolated from 18-week-old, male Wistar rats, while human lysosomal α-glucosidase was obtained in commercially available form from Sanoﬁ Genzyme. Inhibition of isolated glucosidases was evaluated as described previously. 3 Brieﬂy, maltase, isomaltase, sucrase, and cellobiase were used as partially puriﬁed tissue extracts. Inhibition assays for each enzyme were performed with the respective natural substrate, and release of d-glucose measured by Glucose B-test (Wako Diagnostics). Assays of rat ER α-glucosidase II and human lysosomal α-glucosidase inhibition were conducted with α-p-nitrophenylglucoside as substrate; 400 mm Na2CO3 was added to quench these reactions, and the extent of hydrolysis was evaluated as absorbance at 400 nm by spectrophotometer.
(§3) ER α-glucosidase I inhibition assays were performed using anthranilic acid-labelled Glc3Man7GlcNAc2 as substrate. After terminating the reaction with acetonitrile, protein was removed by cen-trifugation through a 10 kDa molecular weight cut oﬀ ﬁlter. The amount of hydrolysis was then quantiﬁed by normal phase high performance liquid chromatography analysis of unreacted substrate and product (Glc2Man7GlcNAc2).4
(§4) ER α-glucosidase II inhibition assays using native-like substrates were performed using an-thranilic acid-labelled Glc2Man7GlcNAc2 as substrate. After terminating the reaction with acetonitrile, protein was removed by centrifugation through a 10 kDa molecular weight cut oﬀ ﬁlter. The amount of hydrolysis was then quantiﬁed by normal phase high performance liq-uid chromatography analysis of unreacted substrate and both products (Glc1Man7GlcNAc2

[2] = target: T2, Rat liver ER α-glucosidase II (Rattus norvegicus, UniProt A0A8I6GFL3); test: Inhibition of isolated rat liver ER α-glucosidase II (α-p-nitrophenylglucoside substrate); details: isolated enzyme in vitro; read-out: IC50 with regard to GluII
T2 construct: Rat liver ER, II; from tissue; host or cells: liver of male Wistar rats
T2 sequence (A0A8I6GFL3 33-944): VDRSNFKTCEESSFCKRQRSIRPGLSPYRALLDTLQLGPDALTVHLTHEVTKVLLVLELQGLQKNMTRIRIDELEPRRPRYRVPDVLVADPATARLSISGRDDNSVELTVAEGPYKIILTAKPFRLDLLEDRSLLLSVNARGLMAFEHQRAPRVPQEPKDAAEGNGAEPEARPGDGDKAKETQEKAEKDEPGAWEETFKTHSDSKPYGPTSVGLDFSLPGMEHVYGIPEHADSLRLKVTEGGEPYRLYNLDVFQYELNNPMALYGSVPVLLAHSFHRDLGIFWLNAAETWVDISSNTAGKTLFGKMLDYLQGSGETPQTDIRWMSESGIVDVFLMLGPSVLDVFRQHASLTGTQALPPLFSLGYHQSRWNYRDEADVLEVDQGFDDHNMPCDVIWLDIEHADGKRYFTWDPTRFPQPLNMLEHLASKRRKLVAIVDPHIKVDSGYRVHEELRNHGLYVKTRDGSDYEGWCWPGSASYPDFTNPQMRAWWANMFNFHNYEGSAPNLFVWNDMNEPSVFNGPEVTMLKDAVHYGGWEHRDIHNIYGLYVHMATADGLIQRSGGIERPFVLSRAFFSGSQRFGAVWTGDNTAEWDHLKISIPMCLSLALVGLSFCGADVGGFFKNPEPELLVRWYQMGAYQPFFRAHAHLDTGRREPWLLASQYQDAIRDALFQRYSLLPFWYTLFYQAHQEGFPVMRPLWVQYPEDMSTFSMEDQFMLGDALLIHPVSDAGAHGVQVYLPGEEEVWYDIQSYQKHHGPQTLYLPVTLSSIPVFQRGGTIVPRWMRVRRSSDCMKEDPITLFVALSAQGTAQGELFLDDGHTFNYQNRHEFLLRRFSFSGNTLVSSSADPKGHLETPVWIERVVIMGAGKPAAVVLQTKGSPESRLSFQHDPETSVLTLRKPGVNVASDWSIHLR
T2 sequence (A0A8I6ADW9 1-525 partner): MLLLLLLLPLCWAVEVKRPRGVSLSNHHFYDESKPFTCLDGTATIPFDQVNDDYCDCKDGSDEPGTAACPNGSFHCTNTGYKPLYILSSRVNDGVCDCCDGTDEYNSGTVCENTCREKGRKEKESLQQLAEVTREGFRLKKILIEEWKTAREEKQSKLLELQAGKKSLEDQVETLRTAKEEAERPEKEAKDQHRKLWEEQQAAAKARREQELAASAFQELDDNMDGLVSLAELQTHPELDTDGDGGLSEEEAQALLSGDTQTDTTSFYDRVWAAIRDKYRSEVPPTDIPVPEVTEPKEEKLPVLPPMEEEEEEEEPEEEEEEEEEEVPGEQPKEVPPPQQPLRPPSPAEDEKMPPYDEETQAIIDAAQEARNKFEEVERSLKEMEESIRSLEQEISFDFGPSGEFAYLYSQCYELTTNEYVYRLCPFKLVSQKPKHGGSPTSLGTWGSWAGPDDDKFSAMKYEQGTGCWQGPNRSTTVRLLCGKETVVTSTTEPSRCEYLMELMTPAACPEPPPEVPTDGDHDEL
Method: as §1, §2, §3, §4

Rat intestinal maltase = test: Inhibition of rat intestinal maltase (natural substrate, glucose release); details: for IC50: isolated enzyme in vitro, mean of three measurements, read-out: IC50, α-Glucosidase, Rat intestinal maltase
Method: as §1, §2, §3, §4

| SMILES | inhibition at 50 µM ([1]; 50 μM, read-out: inhibition of GluI at the maximum tested concentration) [%] | IC50 [1] [µM] | IC50 [2] [µM] | inhibition of intestinal maltase at the maximum tested concentration (Rat intestinal maltase; 50 μM) | IC50 (Rat intestinal maltase) [µM] |
| --- | --- | --- | --- | --- | --- |
| Cc1c(C)c2c(c(C)c1OCCCCCN1CC(O)C(O)C(O)C1CO)CCC(C)(CCCC(C)CCCC(C)CCCC(C)C)O2 (centres unmarked) [Compound 4, 5′-tocopheroxypentyl-DNJ] | < 50 | > 50 | 9 | less than 50% | > 50 |
| CCCCN1CC(O)C(O)C(O)C1CO [Compound 2, N-butyl-D-1-deoxynojirimycin, reference compound] | – | 0.68 | 13 | – | 1.7 |
